From PMC12396409, “Screening and hit evaluation of a microbial metabolite library against the pathogenic Plasmodium falciparum and Toxoplasma gondii parasites” (International Journal for Parasitology: Drugs and Drug …, 2025)
Read-outs that look alike come from different tables or passages of the source.

Columns and labels:
[1] = tested on: P. falciparum 3D7 parasites; assay: P. falciparum growth inhibition assay, 2-cycle (120 h treatment), delayed-death screen and dose-response; format: cell-based, Plasmodium falciparum; conditions: for 3) Fold change (72 h/120 h): growth at 72 h / growth at 120 h
[2] = tested on: P. falciparum 3D7 parasites; assay: P. falciparum growth inhibition assay, 1-cycle (72 h treatment), SYBR DNA staining (library screen at 2 μg/mL and dose-response); format: cell-based, Plasmodium falciparum
[3] = tested on: T. gondii RH strain (RH-Tub-eYFP) tachyzoites; assay: microbe, parasite or virus in culture; format: cell-based, Toxoplasma gondii; conditions: for percent parasite growth at 2 µg/mL: Toxoplasma gondii
[4] = Plasmodium falciparum, 3D7, library screen at 2 μg/mL, 120 h, % growth, replicate 1, read-out: Pf_120h_%Growth_Rep1
[5] = Plasmodium falciparum, 3D7, library screen at 2 μg/mL, 120 h, % growth, replicate 2, read-out: Pf_120h_%Growth_Rep2
[6] = Plasmodium falciparum, 3D7, library screen at 2 μg/mL, 72 h, % growth, replicate 1, read-out: Pf_72h_%Growth_Rep1
[7] = Plasmodium falciparum, 3D7, library screen at 2 μg/mL, 72 h, % growth, replicate 2, read-out: Pf_72h_%Growth_Rep2
[8] = P. falciparum, 120 h, screen at 2 μg/mL, replicate 1
[9] = P. falciparum, 120 h, screen at 2 μg/mL, replicate 2
[10] = P. falciparum, 72 h, screen at 2 μg/mL, replicate 1
[11] = P. falciparum, 72 h, screen at 2 μg/mL, replicate 2
[12] = T. gondii, 72 h, screen at 2 μg/mL, replicate 1
[13] = T. gondii, 72 h, screen at 2 μg/mL, replicate 2
[14] = T. gondii, 72 h, 2 μg/mL, values are growth (% of control)
[15] = library screen at 2 μg/mL, 120 h, % growth, replicate 1
[16] = library screen at 2 μg/mL, 120 h, % growth, replicate 2
[17] = library screen at 2 μg/mL, 72 h, % growth, replicate 1
[18] = library screen at 2 μg/mL, 72 h, % growth, replicate 2

`CC[C@]1(C)C[C@@H](OC(=O)CSc2nnc(N)[nH]2)[C@]2(C)[C@H](C)CC[C@]3(CCC(=O)[C@H]32)[C@@H](C)[C@@H]1O` [Azamulin] was tested. Which “delayed-death activity in the 120 h screen against P. falciparum” value ([1]; 2 μg/mL, criteria: ≥40 % growth at 72 h, ≤20 % growth at 120 h, at least 5-fold) did it give?
Its value is “delayed-death activity”.

What about the “3) Fold change (72 h/120 h)” value ([1]; P. falciparum, 2 μg/mL) of the same molecule?
Its value is 6.9.

What about the activity at 2 µg/mL ([1]; Plasmodium falciparum, 3D7; P. falciparum, 2 μg/mL, 120 h; read-out: 2) Growth (%) at 120 h) of the same molecule?
The activity at 2 µg/mL was 8.89%.

What about the activity at 2 µg/mL [1, 4] of the same molecule?
The activity at 2 µg/mL was 15.6%.

And the activity at 2 µg/mL [1, 5]?
Its activity at 2 µg/mL is 2.17%.

What about the activity at 2 µg/mL ([2]; Plasmodium falciparum, 3D7; P. falciparum, 2 μg/mL, 72 h; read-out: 1) Growth (%) at 72 h) of the same molecule?
Its activity at 2 µg/mL is 61.2%.

What about the activity at 2 µg/mL [2, 6] of the same molecule?
The activity at 2 µg/mL was 59.3%.

What about the activity at 2 µg/mL [2, 7] of the same molecule?
Its activity at 2 µg/mL is 63.1%.

What about the percent parasite growth at 2 µg/mL ([3]; 72 h, library screen at 2 μg/mL, 72 h, % growth, replicate 1, read-out: Tg_72h_%Growth_Rep1) of the same molecule?
The percent parasite growth at 2 µg/mL was 65.2%.

What about the percent parasite growth at 2 µg/mL ([3]; 72 h, library screen at 2 μg/mL, 72 h, % growth, replicate 2, read-out: Tg_72h_%Growth_Rep2) of the same molecule?
Its percent parasite growth at 2 µg/mL is 70.7%.

And the “Screen (T. gondii)” value ([3]; library screen at 2 μg/mL, RH strain, 72 h)?
Its value is “I”.

With `C/C=C/[C@H]1O[C@@](O)([C@@H](C)[C@H](O)[C@H](C)[C@H]2OC(=O)/C(OC)=C/C(C)=C/[C@@H](C)[C@@H](O)[C@@H](C)[C@@H](O)[C@H](C)C/C(C)=C/C=C/[C@@H]2OC)C[C@@H](O[C@H]2C[C@@H](O)[C@H](OC(N)=O)[C@@H](C)O2)[C@@H]1C` [Concanamycin B] as the molecule, how does the Pf_120h_%Growth_Rep1 [1, 8] read?
The Pf_120h_%Growth_Rep1 was -3.38%.

And the Pf_120h_%Growth_Rep2 [1, 9]?
Its Pf_120h_%Growth_Rep2 is 8.50%.

What about the Pf_72h_%Growth_Rep1 [2, 10] of the same molecule?
The Pf_72h_%Growth_Rep1 was 2.18%.

And the Pf_72h_%Growth_Rep2 [2, 11]?
The Pf_72h_%Growth_Rep2 was 1.46%.

And the Tg_72h_%Growth_Rep1 [3, 12]?
The Tg_72h_%Growth_Rep1 was -1.62%.

And the Tg_72h_%Growth_Rep2 [3, 13]?
The Tg_72h_%Growth_Rep2 was 0.33%.

How did the Pf_120h_%Growth_Rep1 ([1]; P. falciparum, 120 h, parasite screen 2 μg/mL, % growth, replicate 1) turn out when `Cc1cc2nc3c(=O)[nH]c(=O)nc-3n(C[C@H](O)[C@H](O)[C@H](O)CO)c2cc1N(C)C` [Roseoflavin] was run?
Its Pf_120h_%Growth_Rep1 is 4.42%.

And the Pf_120h_%Growth_Rep2 ([1]; P. falciparum, 120 h, parasite screen 2 μg/mL, % growth, replicate 2)?
The Pf_120h_%Growth_Rep2 was 7.07%.

And the Pf_72h_%Growth_Rep1 ([2]; P. falciparum, 72 h, parasite screen 2 μg/mL, % growth, replicate 1)?
Its Pf_72h_%Growth_Rep1 is 11.70%.

And the Pf_72h_%Growth_Rep2 ([2]; P. falciparum, 72 h, parasite screen 2 μg/mL, % growth, replicate 2)?
Its Pf_72h_%Growth_Rep2 is 10.95%.

And the Mean ([3]; T. gondii, 72 h, 2 μg/mL, mean of both replicates, growth (% of control))?
The Mean was 28.14.

And the “Replicate 1” value [3, 14]?
Its value is 40.04.

And the “Replicate 2” value [3, 14]?
The value was 16.23.

And the Tg_72h_%Growth_Rep1 ([3]; T. gondii, 72 h, parasite screen 2 μg/mL, % growth, replicate 1)?
Its Tg_72h_%Growth_Rep1 is 40.04%.

What about the Tg_72h_%Growth_Rep2 ([3]; T. gondii, 72 h, parasite screen 2 μg/mL, % growth, replicate 2) of the same molecule?
The Tg_72h_%Growth_Rep2 was 16.23%.

What does the source list for `COc1cc([C@H]2[C@@]3(O)[C@H](O)[C@H]4C[C@]2(O)[C@](O)(C(=O)O4)[C@H]3C(=O)c2ccccc2)oc(=O)c1` [Enterocin]?
Pf_120h_%Growth_Rep1 [1, 15]: 80.40%; Pf_120h_%Growth_Rep2 [1, 16]: 114.14%; Pf_72h_%Growth_Rep1 [2, 17]: 81.25%; Pf_72h_%Growth_Rep2 [2, 18]: 72.68%; Tg_72h_%Growth_Rep1 [3, 17]: 101.62%; Tg_72h_%Growth_Rep2 [3, 18]: 91.26%

How did the Pf_120h_%Growth_Rep1 [1, 15] turn out when `CC(=O)OC[C@]12CCC(C)=C[C@H]1O[C@@H]1[C@H](O)[C@@H](O)[C@@]2(C)[C@]12CO2` [Acetoxyscirpenol, 15-] was run?
The Pf_120h_%Growth_Rep1 was 8.73%.

And the Pf_120h_%Growth_Rep2 [1, 16]?
Its Pf_120h_%Growth_Rep2 is 7.76%.

What about the Pf_72h_%Growth_Rep1 [2, 17] of the same molecule?
Its Pf_72h_%Growth_Rep1 is 9.02%.

And the Pf_72h_%Growth_Rep2 [2, 18]?
Its Pf_72h_%Growth_Rep2 is 0.50%.

What about the Tg_72h_%Growth_Rep1 [3, 17] of the same molecule?
Its Tg_72h_%Growth_Rep1 is -2.14%.

And the Tg_72h_%Growth_Rep2 [3, 18]?
The Tg_72h_%Growth_Rep2 was 0.34%.

Which Pf_120h_%Growth_Rep1 [1] does the source give for Aflatoxin B1 here?
The Pf_120h_%Growth_Rep1 was 89.63%.

And the Pf_120h_%Growth_Rep2 [1]?
Its Pf_120h_%Growth_Rep2 is 84.39%.

And the Pf_72h_%Growth_Rep1 [2]?
The Pf_72h_%Growth_Rep1 was 79.06%.

What about the Pf_72h_%Growth_Rep2 [2] of the same molecule?
Its Pf_72h_%Growth_Rep2 is 85.00%.

What about the Tg_72h_%Growth_Rep1 [3] of the same molecule?
Its Tg_72h_%Growth_Rep1 is 27.47%.

What about the Tg_72h_%Growth_Rep2 [3] of the same molecule?
The Tg_72h_%Growth_Rep2 was 33.32%.

Which results are given for `COc1ccc2c(c1OC)C[N+]1(C)CCc3cc4c(cc3C1C2)OCO4.[I-]` (centres unmarked) [BIA-M1962]?
Pf_120h_%Growth_Rep1 ([1]; P. falciparum 3D7, 120 h, parasite screen at 2 μg/mL, % growth, replicate 1): 5.27%; Pf_120h_%Growth_Rep2 ([1]; P. falciparum 3D7, 120 h, parasite screen at 2 μg/mL, % growth, replicate 2): 17.95%; Pf_72h_%Growth_Rep1 ([2]; P. falciparum 3D7, 72 h, parasite screen at 2 μg/mL, % growth, replicate 1): 14.79%; Pf_72h_%Growth_Rep2 ([2]; P. falciparum 3D7, 72 h, parasite screen at 2 μg/mL, % growth, replicate 2): 27.45%; Tg_72h_%Growth_Rep1 ([3]; T. gondii, 72 h, parasite screen at 2 μg/mL, % growth, replicate 1): 93.48%; Tg_72h_%Growth_Rep2 ([3]; T. gondii, 72 h, parasite screen at 2 μg/mL, % growth, replicate 2): 106.99%

What does the source list for `CCN(CC)CCS(=O)(=O)[C@@H]1CCN2C(=O)c3coc(n3)CC(=O)C[C@H](O)/C=C(C)/C=C/CNC(=O)/C=C/[C@@H](C)[C@@H](C(C)C)OC(=O)[C@@H]12.CS(=O)(=O)O` [Dalfopristin mesylate, reference compound]?
2) Growth (%) at 120 h ([1]; P. falciparum, 2 μg/mL, 120 h): 5.60%; Pf_120h_%Growth_Rep1 [1, 8]: 1.37%; Pf_120h_%Growth_Rep2 [1, 9]: 9.82%; 3) Fold change (72 h/120 h) ([1]; P. falciparum, 2 μg/mL): 8.1; 1) Growth (%) at 72 h ([2]; P. falciparum, 2 μg/mL, 72 h): 45.58%; Pf_72h_%Growth_Rep1 [2, 10]: 55.22%; Pf_72h_%Growth_Rep2 [2, 11]: 35.94%; Tg_72h_%Growth_Rep1 [3, 12]: 40.17%; Tg_72h_%Growth_Rep2 [3, 13]: 68.18%

Which activity at 2 µg/mL [1, 4] does the source give for `CC(C)[C@H]1C(=O)O[C@H](C(C)C)C(=O)N(C)[C@@H](C(C)C)C(=O)O[C@H](C(C)C)C(=O)N(C)[C@@H](C(C)C)C(=O)O[C@H](C(C)C)C(=O)N1C` [Enniatin B] here?
Its activity at 2 µg/mL is 2.26%.

And the activity at 2 µg/mL [1, 5]?
The activity at 2 µg/mL was 4.15%.

What about the activity at 2 µg/mL [2, 6] of the same molecule?
Its activity at 2 µg/mL is 4.68%.

What about the activity at 2 µg/mL [2, 7] of the same molecule?
The activity at 2 µg/mL was 1.65%.

What about the percent parasite growth at 2 µg/mL ([3]; library screen at 2 μg/mL, 72 h, % growth, replicate 1, read-out: Tg_72h_%Growth_Rep1) of the same molecule?
Its percent parasite growth at 2 µg/mL is 3.2%.

What about the percent parasite growth at 2 µg/mL ([3]; library screen at 2 μg/mL, 72 h, % growth, replicate 2, read-out: Tg_72h_%Growth_Rep2) of the same molecule?
The percent parasite growth at 2 µg/mL was 30.3%.
